# ChEMBL document CHEMBL1140451, “Inhibitory effect of synthetic C-C biflavones on various phospholipase A(2)s activity” (Bioorg Med Chem, 2007)
# What was measured:
# Format in all cases: cell-based
# Phospholipase A2 = Phospholipase A2 (Rattus norvegicus, UniProt P04055); experiment: Inhibition of rat cloned sPLA2-1B expressed in HEK293 cells
# [1] = Inhibition of human cloned sPLA2-5 expressed in HEK293 cells
# [2] = biological target: T1, Group 10 secretory phospholipase A2 (Homo sapiens, UniProt O15496); experiment: Inhibition of human cloned sPLA2-10 expressed in HEK293 cells
# T1 sequence (O15496 whole entry): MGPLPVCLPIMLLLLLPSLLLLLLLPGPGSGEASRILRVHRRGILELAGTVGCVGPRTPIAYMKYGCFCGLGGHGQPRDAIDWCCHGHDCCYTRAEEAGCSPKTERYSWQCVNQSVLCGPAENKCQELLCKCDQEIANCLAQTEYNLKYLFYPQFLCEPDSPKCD
# [3] = biological target: T2, Cytosolic phospholipase A2 (Homo sapiens, UniProt P47712); experiment: Inhibition of human cloned cPLA2 expressed in HEK293 cells
# T2 sequence (P47712 whole entry): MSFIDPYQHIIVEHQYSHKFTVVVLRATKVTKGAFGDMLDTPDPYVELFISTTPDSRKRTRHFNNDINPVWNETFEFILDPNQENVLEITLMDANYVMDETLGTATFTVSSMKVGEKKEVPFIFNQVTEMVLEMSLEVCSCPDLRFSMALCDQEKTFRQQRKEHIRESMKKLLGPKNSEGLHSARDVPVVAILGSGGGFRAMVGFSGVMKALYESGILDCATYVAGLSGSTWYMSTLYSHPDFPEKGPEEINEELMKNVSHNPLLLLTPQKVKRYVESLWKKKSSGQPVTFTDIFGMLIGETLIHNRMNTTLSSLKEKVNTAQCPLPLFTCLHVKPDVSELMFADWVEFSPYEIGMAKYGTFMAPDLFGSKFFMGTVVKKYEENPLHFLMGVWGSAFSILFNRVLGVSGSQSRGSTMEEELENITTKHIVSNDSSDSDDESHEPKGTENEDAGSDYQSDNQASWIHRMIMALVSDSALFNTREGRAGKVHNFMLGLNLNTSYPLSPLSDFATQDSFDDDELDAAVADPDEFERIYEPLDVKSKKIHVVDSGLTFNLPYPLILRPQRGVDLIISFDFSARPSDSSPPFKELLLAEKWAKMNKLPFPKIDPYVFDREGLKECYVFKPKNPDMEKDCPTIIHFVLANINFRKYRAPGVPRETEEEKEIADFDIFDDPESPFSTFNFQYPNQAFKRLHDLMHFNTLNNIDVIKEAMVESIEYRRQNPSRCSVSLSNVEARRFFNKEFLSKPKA
# Chain of Phospholipase A2 (P04055 whole entry): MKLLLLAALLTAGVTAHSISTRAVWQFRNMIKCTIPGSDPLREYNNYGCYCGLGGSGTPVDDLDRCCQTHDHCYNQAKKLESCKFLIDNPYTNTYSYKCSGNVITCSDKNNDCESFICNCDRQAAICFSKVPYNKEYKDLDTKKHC
SMILES,IC50 (Phospholipase A2) [µM],IC50 [1] [µM],IC50 [2] [µM],IC50 [3] [µM]
O=c1cc(-c2ccc(O)c(-c3c(O)cc(O)c4c(=O)cc(-c5ccc(O)cc5)oc34)c2)oc2cc(O)cc(O)c12 [AMENTOFLAVONE],> 100,41.8,> 100,> 100
O=c1cc(-c2ccc(Oc3cc(-c4cc(=O)c5c(O)cc(O)cc5o4)ccc3O)cc2)oc2cc(O)cc(O)c12 [OCHNAFLAVONE],> 100,17.6,> 100,> 100
O=c1cc(-c2ccc(-c3ccc4oc(-c5ccccc5)cc(=O)c4c3)cc2)oc2ccccc12,> 100,10.8,> 100,11.9
O=c1cc(-c2ccc(-c3c(-c4ccccc4)oc4ccccc4c3=O)cc2)oc2ccccc12,> 100,6.5,> 100,8.42
O=c1cc(-c2ccccc2)oc2ccc(-c3ccc4oc(-c5ccccc5)cc(=O)c4c3)cc12,> 100,50,> 100,48.1
O=c1cc(-c2cccc(-c3ccc4oc(-c5ccccc5)cc(=O)c4c3)c2)oc2ccccc12,> 100,12.8,27.6,16.8
O=c1cc(-c2ccc(-c3ccc(-c4cc(=O)c5ccccc5o4)cc3)cc2)oc2ccccc12,> 100,8.7,> 100,6
O=c1cc(-c2ccc(-c3cccc(-c4cc(=O)c5ccccc5o4)c3)cc2)oc2ccccc12,> 100,23.9,> 100,38.7
